Results reported in ChEMBL document CHEMBL1144438, “Dipeptidyl peptidase IV inhibitors derived from beta-aminoacylpiperidines bearing a fused thiazole, oxazole, isoxazole, or pyrazole” (Bioorg Med Chem Lett, 2005).
Values belong to the molecule of their own block, whether it stands above or below them.

Assays:
Dipeptidyl peptidase 8 = Dipeptidyl peptidase 8 (Homo sapiens, UniProt Q6V1X1); experiment: Inhibitory concentration against human dipeptidylpeptidase 8
Dipeptidyl peptidase 9 = Dipeptidyl peptidase 9 (Homo sapiens, UniProt Q86TI2); experiment: Inhibitory concentration against human dipeptidylpeptidase 9
Dipeptidyl peptidase 9, sequence (Q86TI2 whole entry): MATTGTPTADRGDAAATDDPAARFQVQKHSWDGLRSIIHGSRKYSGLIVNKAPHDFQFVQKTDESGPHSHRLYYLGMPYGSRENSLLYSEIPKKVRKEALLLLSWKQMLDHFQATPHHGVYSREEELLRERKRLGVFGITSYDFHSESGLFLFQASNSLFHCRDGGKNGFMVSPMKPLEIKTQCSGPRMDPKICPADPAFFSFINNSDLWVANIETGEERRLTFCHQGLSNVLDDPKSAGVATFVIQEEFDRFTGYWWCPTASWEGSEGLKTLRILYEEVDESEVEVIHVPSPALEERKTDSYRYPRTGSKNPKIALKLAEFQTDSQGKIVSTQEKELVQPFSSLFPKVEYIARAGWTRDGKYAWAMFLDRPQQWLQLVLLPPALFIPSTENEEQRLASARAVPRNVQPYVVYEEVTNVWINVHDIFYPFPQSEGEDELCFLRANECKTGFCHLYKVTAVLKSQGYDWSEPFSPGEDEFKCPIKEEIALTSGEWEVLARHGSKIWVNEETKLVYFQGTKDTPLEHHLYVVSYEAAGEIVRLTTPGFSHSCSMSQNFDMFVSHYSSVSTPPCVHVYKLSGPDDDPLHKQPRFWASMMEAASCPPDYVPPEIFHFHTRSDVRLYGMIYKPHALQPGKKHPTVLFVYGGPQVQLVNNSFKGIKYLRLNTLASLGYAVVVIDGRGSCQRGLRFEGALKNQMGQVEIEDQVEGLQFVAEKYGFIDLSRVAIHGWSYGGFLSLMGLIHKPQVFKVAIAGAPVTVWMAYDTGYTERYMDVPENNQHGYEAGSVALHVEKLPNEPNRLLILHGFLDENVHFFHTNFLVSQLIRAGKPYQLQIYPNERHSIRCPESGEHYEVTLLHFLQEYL

[1] = Oral bioavailability of compound in rats dosed at 2 mg/kg p.o.; format: ADME, organism-based; conditions: rat, in vivo
[2] = Plasma clearance of compound in rats dosed at 1 mg/kg i.v.; format: ADME, organism-based; set-up: dose 1 mg/kg, route intravenous; conditions: rat, iv
[3] = Half-life of compound in rats dosed at 1 mg/kg i.v.; format: ADME, organism-based; set-up: dose 1 mg/kg, route intravenous; conditions: rat, in vivo, iv
Dipeptidyl peptidase 2 = Dipeptidyl peptidase 2 (Homo sapiens, UniProt Q9UHL4); experiment: Inhibitory concentration against human dipeptidylpeptidase VII (QPP)

Dipeptidyl peptidase 8, sequence (Q6V1X1 whole entry): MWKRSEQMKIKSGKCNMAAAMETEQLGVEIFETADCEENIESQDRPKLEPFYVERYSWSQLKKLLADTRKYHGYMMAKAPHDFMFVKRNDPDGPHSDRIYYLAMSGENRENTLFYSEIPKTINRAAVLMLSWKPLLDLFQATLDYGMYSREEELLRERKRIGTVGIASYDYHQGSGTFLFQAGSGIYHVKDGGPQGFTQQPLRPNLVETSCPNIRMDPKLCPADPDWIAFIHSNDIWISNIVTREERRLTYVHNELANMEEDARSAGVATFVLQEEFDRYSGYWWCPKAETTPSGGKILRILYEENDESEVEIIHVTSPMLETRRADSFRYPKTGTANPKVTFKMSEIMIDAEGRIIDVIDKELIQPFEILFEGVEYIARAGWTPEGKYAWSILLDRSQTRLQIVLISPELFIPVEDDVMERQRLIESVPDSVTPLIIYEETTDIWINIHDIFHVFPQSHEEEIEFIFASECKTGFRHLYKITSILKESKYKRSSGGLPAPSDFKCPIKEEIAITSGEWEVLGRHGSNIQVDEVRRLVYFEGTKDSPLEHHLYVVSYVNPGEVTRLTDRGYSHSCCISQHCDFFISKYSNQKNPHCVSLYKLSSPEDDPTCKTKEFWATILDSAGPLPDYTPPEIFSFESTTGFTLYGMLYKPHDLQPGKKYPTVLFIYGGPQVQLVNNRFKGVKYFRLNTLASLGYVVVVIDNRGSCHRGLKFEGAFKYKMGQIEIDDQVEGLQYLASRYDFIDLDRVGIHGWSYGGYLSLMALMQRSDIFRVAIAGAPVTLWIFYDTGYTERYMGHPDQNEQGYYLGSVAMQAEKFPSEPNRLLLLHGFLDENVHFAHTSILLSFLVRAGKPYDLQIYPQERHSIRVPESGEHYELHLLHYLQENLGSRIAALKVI

- IC50 (Dipeptidyl peptidase 8): > 100 µM
- IC50 (Dipeptidyl peptidase 9): > 100 µM
SMILES: Cn1nc2c(c1C(F)(F)F)CN(C(=O)C[C@H](N)Cc1cc(F)ccc1F)CC2

- IC50 (Dipeptidyl peptidase 9): > 100 µM
SMILES: Cn1nc(-c2ccc(F)cc2)c2c1CCN(C(=O)C[C@H](N)Cc1cc(F)ccc1F)C2

- IC50 (Dipeptidyl peptidase 8): > 100 µM
- IC50 (Dipeptidyl peptidase 9): > 100 µM
SMILES: N[C@@H](CC(=O)N1CCc2nn(CC(F)(F)F)c(C(F)(F)F)c2C1)Cc1cc(F)ccc1F

- bioavailability [1]: 55%
- clearance [2]: 91 mL/min/kg
- half-life [3]: 3.3 h
SMILES: N[C@@H](CC(=O)N1CCc2sc(-c3ccc(F)cc3)nc2C1)Cc1cc(F)ccc1F

- IC50 (Dipeptidyl peptidase 9): > 100 µM
SMILES: Cn1nc(C(F)(F)F)c2c1CCN(C(=O)C[C@H](N)Cc1cc(F)ccc1F)C2

- IC50 (Dipeptidyl peptidase 2): > 100 µM
SMILES: N[C@@H](CC(=O)N1CCc2c(noc2C(F)(F)F)C1)Cc1cc(F)ccc1F

- IC50 (Dipeptidyl peptidase 9): > 100 µM
SMILES: N[C@@H](CC(=O)N1CCc2c(c(C(F)(F)F)nn2CC(F)(F)F)C1)Cc1cc(F)ccc1F

- bioavailability [1]: 20%
- clearance [2]: 60 mL/min/kg
- half-life [3]: 1.5 h
SMILES: CS(=O)(=O)c1ccc(-c2nc3c(s2)CCN(C(=O)C[C@H](N)Cc2cc(F)ccc2F)C3)cc1

- IC50 (Dipeptidyl peptidase 9): > 100 µM
- IC50 (Dipeptidyl peptidase 2): > 100 µM
SMILES: N[C@@H](CC(=O)N1CCc2oc(C3CC3)nc2C1)Cc1cc(F)ccc1F

- IC50 (Dipeptidyl peptidase 9): > 100 µM
SMILES: Cn1nc2c(c1-c1ccc(F)cc1)CN(C(=O)C[C@H](N)Cc1cc(F)ccc1F)CC2

- bioavailability [1]: 16%
- IC50 (Dipeptidyl peptidase 9): > 100 µM
- clearance [2]: 250 mL/min/kg
- half-life [3]: 2 h
SMILES: N[C@@H](CC(=O)N1CCc2sc(C(F)(F)F)nc2C1)Cc1cc(F)ccc1F

- IC50 (Dipeptidyl peptidase 8): > 100 µM
- IC50 (Dipeptidyl peptidase 9): > 100 µM
SMILES: N[C@@H](CC(=O)N1CCc2noc(C(F)(F)F)c2C1)Cc1cc(F)ccc1F

- IC50 (Dipeptidyl peptidase 8): > 100 µM
- IC50 (Dipeptidyl peptidase 9): > 100 µM
SMILES: N[C@@H](CC(=O)N1CCCc2n[nH]c(C(F)(F)F)c21)Cc1cc(F)ccc1F

- IC50 (Dipeptidyl peptidase 8): > 100 µM
- IC50 (Dipeptidyl peptidase 9): > 100 µM
SMILES: Cn1nc2c(c1C(F)(F)C(F)(F)F)CN(C(=O)C[C@H](N)Cc1cc(F)ccc1F)CC2

- IC50 (Dipeptidyl peptidase 9): > 100 µM
SMILES: Cn1nc(C(F)(F)C(F)(F)F)c2c1CCN(C(=O)C[C@H](N)Cc1cc(F)ccc1F)C2

- IC50 (Dipeptidyl peptidase 9): > 100 µM
SMILES: Cn1nc2c(c1C(F)(F)F)CCN(C(=O)C[C@H](N)Cc1cc(F)ccc1F)C2

- IC50 (Dipeptidyl peptidase 9): > 100 µM
SMILES: N[C@@H](CC(=O)N1CCc2n[nH]c(C(F)(F)C(F)(F)F)c2C1)Cc1cc(F)ccc1F (stereo in doubt; form 1)

- IC50 (Dipeptidyl peptidase 9): > 100 µM
SMILES: N[C@@H](CC(=O)N1CCc2n[nH]c(C(F)(F)C(F)(F)F)c2C1)Cc1cc(F)ccc1F (stereo in doubt; form 2)
